From US11696913B2, “Prolonged ectoparasite-controlling agent for animal” (MITSUI CHEMICALS AGRO, INC., priority 2017, dated 2023)

Assays:
Ctenocephalides felis [1] = assay: In vitro contact test with fleas; settings: read-out: insecticidal activity; for pest or weed control at 0.04 µg/cm2, 0.04 µg/cm2: dose 0.04 μg/cm^2, dead or moribund fleas after 48 h; for pest or weed control at 0.2 µg/cm2, 0.2 µg/cm2: dose 0.2 μg/cm^2, dead or moribund fleas after 48 h; for pest or weed control at 1 µg/cm2, 1 µg/cm2: dose 1 μg/cm^2, dead or moribund fleas after 48 h
Method in brief: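 Adult male and female cat fleas (5-10 per tube) placed in glass tubes coated with compound from acetone solution (900 ppm gives 5 μg/cm^2), kept at room temperature and ambient humidity. After 48 h, motionless or uncoordinated fleas scored dead or moribund; activity expressed as % dead or moribund.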

Amblyomma americanum = assay: In vitro contact test with hard ticks (Amblyomma americanum nymphs); settings: read-out: acaricidal activity; for pest or weed control at 0.2 µg/cm2, 0.2 µg/cm2: dose 0.2 μg/cm^2, 48 h; for pest or weed control at 1 µg/cm2, 1 µg/cm2: dose 1 μg/cm^2, 48 h
Method in brief: (§1)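 Adult R. sanguineus, I. ricinus, D. variabilis or A. americanum nymphs exposed in glass vials coated with compound from acetone (900 ppm gives 5 μg/cm^2). Held 48 h at room temperature (R. sanguineus) or 21° C., 85% rel. hum.; then heated at 45-50° C. ≤5 min, motionless or uncoordinated ticks scored dead/moribund.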

Dermacentor variabilis = assay: In vitro contact test with adult hard ticks (Dermacentor variabilis); settings: read-out: acaricidal activity; for pest or weed control at 0.2 µg/cm2, 0.2 µg/cm2: dose 0.2 μg/cm^2, 48 h; for pest or weed control at 1 µg/cm2, 1 µg/cm2: dose 1 μg/cm^2, 48 h
Method in brief: as §1

[2] = system: Rhipicephalus (Boophilus) microplus; assay: In vitro injection test with Rhipicephalus (Boophilus) microplus (BOOPMI Inj); settings: 168 h, laid fertile eggs after 7 days, read-out: acaricidal activity; for pest or weed control at 32 ng: dose 0.032 μg/animal injected; for pest or weed control at 0.00016 mg: dose 0.16 μg/animal injected; for pest or weed control at 0.0008 mg: dose 0.8 μg/animal injected
Method in brief: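 Test substance in DMSO; 1 μl injected into abdomen of each of 5 engorged adult female ticks, then held at 28° C., 85% rel. hum. Activity scored after 7 days from laying of fertile eggs: 100% = no eggs or all infertile, 0% = all eggs fertile.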

Ctenocephalides felis [3] = assay: Ctenocephalides felis in-vitro feeding test with fleas (CTECFE oral); settings: 48 hours, read-out: insecticidal feeding activity; for pest or weed control at 0.16 ppm: dose 0.16 ppm in citrated cattle blood; for pest or weed control at 0.8 ppm: dose 0.8 ppm in citrated cattle blood; for pest or weed control at 4 ppm: dose 4 ppm in citrated cattle blood; for pest or weed control at 0.032 ppm: dose 0.032 ppm in citrated cattle blood
Method in brief: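 About 20 unfed adult cat fleas fed through parafilm on citrated cattle blood containing test substance (DMSO solution diluted in blood), held at about 37° C. Kill rate scored after 48 hours, 100% meaning all fleas dead.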

Spodoptera litura = assay: Insecticidal testing against common cutworm; type: in vivo; settings: foliar, 144 h, concentration 100 ppm, cabbage leaf dip, second-stage larvae, after 6 days, read-out: pesticidal rate
From the text: Insecticidal Testing Against Common Cutworm (Spodoptera litura)

Plutella xylostella = assay: Insecticidal testing against diamondback moth; type: in vivo; settings: foliar, 144 h, concentration 100 ppm, cabbage leaf dip, third-stage larvae, after 6 days, read-out: pesticidal rate
From the text: Insecticidal Testing Against Diamondback Moth (Plutella xylostella)

Laodelphax striatellus = assay: Insecticidal testing against small brown planthopper; type: in vivo; settings: 144 h, concentration 100 ppm, sprayed rice seedlings, after 6 days, read-out: pesticidal rate
Protocol: Insecticidal Testing Against Small Brown Planthopper (Laodelphax striatellus)
An additional test was carried out with 10 small brown planthoppers by preparing an acetone solution of the testing compound diluted to a predetermined concentration, spraying the solution onto rice seedlings and air drying the rice seedlings. The medicament was all used as received. The rice seedlings were placed in a constant-temperature room at 25° C., and the survival rate was investigated after 6 days. The test was carried out by means of one group of 10 pests.

Rhipicephalus sanguineus = assay: In vitro contact test with adult hard ticks (Rhipicephalus sanguineus); settings: read-out: acaricidal activity; for pest or weed control at 0.2 µg/cm2, 0.2 µg/cm2: dose 0.2 μg/cm^2, 48 h; for pest or weed control at 1 µg/cm2, 1 µg/cm2: dose 1 μg/cm^2, 48 h
Method in brief: as §1

| SMILES | pest or weed control at 0.04 µg/cm2, 0.04 µg/cm2 (Ctenocephalides felis [1]) [%] | pest or weed control at 0.2 µg/cm2, 0.2 µg/cm2 (Ctenocephalides felis [1]) [%] | pest or weed control at 1 µg/cm2, 1 µg/cm2 (Ctenocephalides felis [1]) [%] | pest or weed control at 0.2 µg/cm2, 0.2 µg/cm2 (Amblyomma americanum) [%] | pest or weed control at 1 µg/cm2, 1 µg/cm2 (Amblyomma americanum) [%] | pest or weed control at 0.2 µg/cm2, 0.2 µg/cm2 (Dermacentor variabilis) [%] | pest or weed control at 1 µg/cm2, 1 µg/cm2 (Dermacentor variabilis) [%] | pest or weed control at 32 ng [2] [%] | pest or weed control at 0.00016 mg [2] [%] | pest or weed control at 0.0008 mg [2] [%] | pest or weed control at 0.16 ppm (Ctenocephalides felis [3]) [%] | pest or weed control at 0.8 ppm (Ctenocephalides felis [3]) [%] | pest or weed control at 4 ppm (Ctenocephalides felis [3]) [%] | pest or weed control at 100 ppm (Spodoptera litura) [%] | pest or weed control at 100 ppm (Plutella xylostella) [%] | pest or weed control at 100 ppm (Laodelphax striatellus) [%] | pest or weed control at 0.2 µg/cm2, 0.2 µg/cm2 (Rhipicephalus sanguineus) [%] | pest or weed control at 1 µg/cm2, 1 µg/cm2 (Rhipicephalus sanguineus) [%] | pest or weed control at 0.032 ppm (Ctenocephalides felis [3]) [%] | further results |
| --- | --- | --- | --- | --- | --- | --- | --- | --- | --- | --- | --- | --- | --- | --- | --- | --- | --- | --- | --- | --- |
| CN(C(=O)c1ccc(F)cc1F)c1cccc(C(=O)Nc2c(I)cc(C(F)(C(F)(F)F)C(F)(F)F)cc2C(F)(F)F)c1F [Compound 56] | 95 | 95 | 95 | 90 | 90 | 90 | 90 | 100 | 100 | 100 | 95 | 95 | 95 | ≥ 70 | ≥ 70 | ≥ 70 |  |  |  | pest or weed control at 0.04 µg/cm2, 0.04 µg/cm2 (Amblyomma americanum; dose 0.04 μg/cm^2, 48 h): 90% |
| CN(C(=O)c1ccc(C#N)nc1)c1cccc(C(=O)Nc2c(I)cc(C(F)(C(F)(F)F)C(F)(F)F)cc2C(F)(F)F)c1F [Compound 57] | 95 | 95 | 95 |  | 90 | 90 | 90 | 100 | 100 | 100 | 95 | 95 | 95 | ≥ 70 | ≥ 70 | ≥ 70 | 90 | 90 |  |  |
| CN(C(=O)c1ccc(F)cc1)c1cccc(C(=O)Nc2c(I)cc(C(F)(C(F)(F)F)C(F)(F)F)cc2[S+]([O-])C(F)(F)F)c1F (centres unmarked) [Compound 69] |  | 95 | 95 | 90 | 90 |  |  |  | 100 | 100 | 95 | 95 | 95 | ≥ 70 | ≥ 70 | ≥ 70 | 90 | 90 | 95 |  |
| CN(C(=O)c1ccc(Cl)c(Cl)c1)c1cccc(C(=O)Nc2c(I)cc(C(F)(C(F)(F)F)C(F)(F)C(F)(F)F)cc2C(F)(F)F)c1F (centres unmarked) [Compound 75] |  | 95 | 95 |  | 90 |  |  |  | 100 | 100 |  | 95 | 95 | ≥ 70 | ≥ 70 | ≥ 70 | 90 | 90 |  |  |
| O=C(Nc1cccc(C(=O)Nc2c(I)cc(C(F)(C(F)(F)F)C(F)(F)C(F)(F)F)cc2C(F)(F)F)c1F)c1ccc(Cl)c(Cl)c1 (centres unmarked) [Compound 76] |  |  |  |  | 90 | 90 | 90 |  | 100 | 100 |  | 95 | 95 | ≥ 70 | ≥ 70 | ≥ 70 | 90 | 90 |  | pest or weed control at 0.04 µg/cm2, 0.04 µg/cm2 (Rhipicephalus sanguineus; dose 0.04 μg/cm^2, 48 h): 90% |
| CN(C(=O)c1ccc(C(F)F)nc1)c1cccc(C(=O)Nc2c(I)cc(C(F)(C(F)(F)F)C(F)(F)F)cc2C(F)(F)F)c1F [Compound 87] | 95 | 95 | 95 | 90 | 90 | 90 | 90 | 100 | 100 | 100 | 95 | 95 | 95 | ≥ 70 | ≥ 70 | ≥ 70 |  |  | 95 |  |
| CN(C(=O)c1ccc(F)cc1)c1cccc(C(=O)Nc2c(Br)cc(C(F)(C(F)(F)F)C(F)(F)C(F)(F)F)cc2OC(F)(F)F)c1F (centres unmarked) [Compound 94] |  |  |  | 90 | 90 |  | 90 | 100 | 100 | 100 | 95 | 95 | 95 | ≥ 70 | ≥ 70 | ≥ 70 | 90 | 90 | 95 | pest or weed control at 6.4 ng ([2]; dose 0.0064 μg/animal injected): 100% |
| CN(C(=O)c1ccc(C(F)(F)F)nc1)c1cccc(C(=O)Nc2c(I)cc(C(F)(C(F)(F)F)C(F)(F)F)cc2OC(F)(F)F)c1F [Compound 117, N-(2-fluoro-3-((2-iodo-4-(perfluoropropan-2-yl)-6-(trifluoromethoxy)phenyl)carbamoyl)phenyl)-N-methyl-6-(trifluoromethyl)nicotinamide] |  | 95 | 95 |  | 90 |  |  | 100 | 100 | 100 | 95 | 95 | 95 | ≥ 70 | ≥ 70 | ≥ 70 | 90 | 90 | 95 |  |
